The values that follow come from US20200113920A1, “COMPOSITIONS AND METHODS FOR TREATMENT OF MICROSPORIDIA INFECTION USING PROTEASOME INHIBITORS INCLUDING IXAZOMIB” (BARNARD COLLEGE, priority 2018, published 2020).

For data set [1], the system named is N. ceranae. Description: N. ceranae infection intensity in experimentally infected honey bees fed drug in sucrose syrup. The format is in vivo, Nosema ceranae. As to the method: that works by reacting with the β5 subunit responsible for chymotrypsin-like activity (Goldberg, 2012). After experimentally infecting bees, infected bees were fed sucrose syrup or sucrose syrup containing 500 μM MG132 for 2 days starting on day 6 post infection. On day 8 post infection, spore levels were then measured using light microscopy to determine the effects of proteasome inhibition on N. ceranae infection intensity. […] MG132 is a poorly bioavailable proteasome inhibitor with known toxicity in multicellular eukaryotes. […] Significant effort has been directed towards finding novel strategies for targeting the proteasome (Goldberg, 2012; Śledź and Baumeister, 2016; Cromm and Crews, 2017), providing a number of pharmacologic agents with better efficacy, improved bioavailability, and increased selectivity. We first tested the ability of ixazomib, a modified peptide boronic acid that binds the β5 site of the 20 S proteasome and inhibits proteasome activity (Kupperman et al. 2010), to reduce N. ceranae infection in honey bees. Ixazomib is commercially available (e.g., from Selleck Chemincals) and has the structure of […]

Data set [2] deals with N. ceranae. The experiment in a line: N. ceranae infection in newly eclosed, experimentally infected honey bees fed proteasome inhibitors (spore counting and quantitative PCR). The conditions noted are these: for infection intensity after cessation of treatment (rebound): four days treatment, then sucrose solution alone for 4 days, spore counting and DNA; for efficacy against N. ceranae infection relative to Fumagillin: feeding bees during N. ceranae infection. Type of data set: in vivo, Nosema ceranae. The text has this:
To standardize experiments by using age-matched bees and to allow for longer treatment periods, we used newly enclosed bees and tested the effects of a number of commercially available proteasome inhibitors, including Ixazomib (MLN2238) (purchased from Selleck Chemicals), Ixazomib citrate (MLN9708) (purchased from Selleck Chemicals), Oprozomib (ONX 0912) (purchased from Selleck Chemicals), Dexazomib (purchased from Selleck Chemicals), Carfilzomib (purchased from Selleck Chemicals), Bortezomib (purchased from Selleck Chemicals), Epoxomicin (purchased from Selleck Chemicals), HMB-Val-Ser-Leu-VE (purchased from Cayman Chemical), MG-262 (purchased from APExBIO), and the two stereoisomers of MG132 (S and R) (purchased from Cayman Chemical) as well as Fumagillin (purchased from Selleck Chemicals). On day two post-eclosion, N. ceranae spores (5×10^6 ml) were fed to bees in sucrose solution ad libitum (Fries et al. 2013) for 48 hours. At 3 days post infection, honey bees in individual cages were fed sucrose solution containing one of the pharmacologic agents at 40 μM or vehicle control alone. For each trial, we tested pairs of novel compounds simultaneously with an untreated group, a Fumagillin treated group, and an Ixazomib-treated group. After 4 days of drug feeding, honey bee midguts were dissected, and infection levels were assessed by spore counting and quantitative PCR.
We focused on ixazomib and ixazomib citrate for further experiments. Again using newly eclosed bees, we treated infected bees for up to eight days with ixazomib, Fumagillin, or sucrose solution alone, and measured infection level by spore counting and DNA on days 4 and 8 post initiation of treatment (FIGS. 4A and 4B). […] Finally, the goal was to determine whether any rebound of N. ceranae infection was observed after cessation of treatment by ixazomib and ixazomib citrate as has been reported for Fumagillin (Huang et al. 2013). Infected newly eclosed bees were treated with sucrose solution containing ixazomib, ixazomib citrate, Fumagillin, or vehicle alone for four days. We then switched all cages to sucrose solution alone for 4 days and then measured infection level by spore counting and DNA. We observed that infection intensity stayed the same for bees receiving sucrose solution for the whole experiment, increased for those bees treated with Fumagillin first, and decreased for those bees fed either ixazomib or ixazomib citrate first (FIGS. 4E and 4F).

For a further data set, the system named is honey bees. The experiment in a line: Honey bee survival during drug feeding. The settings on record: 40 μM in sucrose solution for 10 days starting day 3 post-eclosion, newly emerged bees. The format is in vivo, Apis mellifera. Here is the method:
To assess the impact of ixazomib treatment on age-matched honey bees, newly emerged bees were fed sucrose solution containing ixazomib, ixazomib citrate, Fumagillin (all at 40 μM), or vehicle alone for 10 days starting on day 3 post-eclosion.

Another data set concerns Encephalitozoon hellem. Description: E. hellem infection of RK-13 cells, qPCR-based assay of pathogen and host cell genome equivalents. The settings on record: four-day infection of RK-13 cells. The text has this: (§1) Thus, it was hypothesized that pharmacological inhibition of the UPS will reduce infection intensity of diverse microsporidia in their respective host species. To test this hypothesis, we chose to focus on Encephalitozoon hellem, a microsporidia species first described as the cause of keratoconjunctivitis in 3 AIDS patients in 1991 (Didier et al. 1991) and subsequently observed in numerous immunocompromised patients (Weiss and Becnel, 2014). The genome of E. hellem has been sequenced (Pombert et al. 2012) and it is easily culturable (Molestina et al. 2014), making it ideal for such studies.
For orientation: Quantitative PCR measures a nucleic acid by following its amplification.

The subject of data set [3] is N. ceranae. The experiment in a line: N. ceranae infection in naturally infected bees from a highly infected colony. The format is in vivo, Nosema ceranae. The conditions noted are these: bees from a highly infected colony (prevalence>90% infected); fed 2 days vs DMSO vehicle control.
Data set [4] deals with rabbit kidney cell line (RK-13) cells. Description: Rabbit cell numbers in E. hellem-infected RK-13 culture. Type of data set: cell-based. The conditions noted are these: 10-100 nM ixazomib; four-day infection of RK-13 cells.
Text: as §1

Structures can show the parent of a compound that is named as a salt. Non-standard residues stand in square brackets, D forms with d. Residues, ends and D or L forms follow the SMILES beside them. ξ: configuration not given here. *: point of attachment. Cbz = O=C(OCc1ccccc1)*; ξL = CC(C)CC(N)C(=O)O

For the molecule `CO[C@@H]1[C@H](OC(=O)/C=C/C=C/C=C/C=C/C(=O)O)CC[C@]2(CO2)[C@H]1[C@@]1(C)O[C@@H]1CC=C(C)C` [Fumagillin], the “N. ceranae infection intensity, Fumagillin compared with MG132” value with N. ceranae [1] (two days of feeding Fumagillin, data not shown) is “similar”. For the same molecule, the “infection intensity after cessation of treatment (rebound)” value in the data set with N. ceranae [2] is given as “increased”. Further, in the data set on honey bees, the honey bee survival entry is “no differences in the survival between treatments”. The “E. hellem infection intensity, Fumagillin compared with ixazomib” value in the data set with Encephalitozoon hellem (50 ng/ml Fumagillin) is “comparable”.

As for `CCOC(=O)/C=C/[C@H](CC(C)C)NC(=O)[C@H](CO)NC(=O)[C@@H](NC(=O)c1cccc(O)c1C)C(C)C` [HMB-Val-Ser-Leu-VE], in the data set on N. ceranae [2] (40 μM in sucrose solution, from 3 days post infection, 4 days of drug feeding, midguts, quantitative PCR), the “infection level by relative genome equivalents” value is given as “all tested proteasome inhibitors except HMB-Val-Ser-Leu-VE”.

`CC(C)C[C@H](NC(=O)CNC(=O)c1cc(Cl)ccc1Cl)B1OC(=O)C(CC(=O)O)(CC(=O)O)O1` [Ixazomib citrate]: the honey bee survival entry in the data set on honey bees is given as “no differences in the survival between treatments”.

Consider `CC(C)C[C@H](NC(=O)CNC(=O)c1cc(Cl)ccc1Cl)B(O)O` [Ixazomib], for which, in the data set on N. ceranae [3], the “N. ceranae infection by both spore-counting and DNA analysis” value is “striking reduction”. For the same molecule, the “N. ceranae infection intensity by spore counting and DNA analysis” value in the data set on N. ceranae [2] (2.5 μM) is “diminished, but still robust, reduction in infection intensity”. Also, in the data set with N. ceranae [2] (40 μM, 4 days of drug feeding, spore counting and quantitative PCR), the “impact on N. ceranae infection levels (ranking among tested inhibitors)” value is “most effective at reducing infection levels”. In addition, in the data set on N. ceranae [2], the “efficacy against N. ceranae infection relative to Fumagillin” value is on record as “better efficacy than Fumagillin” and the “infection intensity after cessation of treatment (rebound)” value is listed as “decreased”. For the same molecule, in the data set on N. ceranae [2] (treated up to eight days, measured days 4 and 8, spore counting and DNA analysis (FIGS. 4A-4F)), the “N. ceranae infection level, dose and time dependence” value was “stably reduces N. ceranae infection level in a dose and time dependent manner”. For the same molecule, the honey bee survival entry with honey bees is “no differences in the survival between treatments”. Further, the “E. hellem infection intensity” value with Encephalitozoon hellem (10-100 nM ixazomib, preliminary results) is reported as “reduces E. hellem infection intensity”. In data set [4], the rabbit cell numbers result is “without substantial reduction in rabbit cell numbers”.

Turning to `CC(C)CC(NC(=O)[C@H](CC(C)C)NC(=O)OCc1ccccc1)C(=O)N[C@H](C=O)CC(C)C` (stereo partly drawn) [MG132] (Cbz-Leu-[ξL]-Leu-aldehyde), the “N. ceranae infection intensity (spore levels by light microscopy)” value with N. ceranae [1] (experimentally infected bees, 500 μM MG132 in sucrose syrup for 2 days (48 hours) from day 6 post infection, measured day 8) is recorded as “dramatic reduction in infection intensity”. For the same molecule, in the data set on N. ceranae [2], the “efficacy against N. ceranae infection relative to Fumagillin” value is given as “not as efficacious as Fumagillin”.
